Our source for the GI50 values is PMC12652692, “Synthesis and In Vitro Anticancer Evaluation of Novel Phosphonium Derivatives of Chrysin” (International Journal of Molecular Sciences, 2025).

What is called GI50 is the concentration at which growth is held to half of that of the control. Higher therefore signals lower sensitivity of the cells.

Test in all cases: NCI60 five-dose screen
What all share (format): cell-based

One test deals with DU-145. Conditions: Homo sapiens; DU-145, Prostate Cancer. The essentials: (§1)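 Plate cells, 24 h preincubation; TCA-fix time-zero plates; add compound at 5 doses (10-fold or ½ log series); incubate 48 h, 37 °C, 5% CO2; TCA fix, SRB stain, A515; GI50 from growth % vs tz and control.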
The next test relates to NCI-H460. Particulars: Homo sapiens; NCI-H460, Non-small-Cell Lung Cancer. In a few lines:
as §1

The next test has as its system NCI/ADR-RES. Particulars: Homo sapiens, Ovarian Cancer. In a few lines:
as §1

The subject of a further test is MCF7. Conditions: Homo sapiens; MCF7, Breast Cancer. The essentials: as §1
A further test has as its system NCI-H226. Conditions: Homo sapiens; NCI-H226, Non-small-Cell Lung Cancer. The essentials: as §1
A further test has as its system HOP-92. Conditions: Homo sapiens; HOP-92, Non-small-Cell Lung Cancer. In a few lines: as §1
The subject of a further test is RXF 393. Particulars: Homo sapiens; RXF 393, Renal Cancer. In a few lines:
as §1

Another test has as its system MDA-MB-435. Particulars: Homo sapiens; MDA-MB-435, Melanoma. In a few lines: as §1
Another test has as its system SF-295. Particulars: Homo sapiens; SF-295, CNS Cancer. The essentials:
as §1

In the next test the test system is SF-268. Conditions: Homo sapiens; SF-268, CNS Cancer. The essentials: as §1
The subject of the next test is MALME-3M. Conditions: Homo sapiens, Melanoma. In a few lines: as §1
The subject of a further test is SK-MEL-28. Particulars: Homo sapiens; SK-MEL-28, Melanoma. In a few lines: as §1
For another test, the system named is T-47D. Conditions: Homo sapiens, T47D, Breast Cancer. In a few lines: as §1
The subject of a further test is IGROV1. Particulars: Homo sapiens, IGROV-1; IGROV1, Ovarian Cancer. In a few lines: as §1
A further test deals with NCI-H522. Conditions: Homo sapiens; NCI-H522, Non-small-Cell Lung Cancer. In a few lines: as §1
The test system of another test is HCT-116. Conditions: Homo sapiens; HCT-116, Colon Cancer. The essentials:
as §1

The next test has as its system KM12. Particulars: Homo sapiens; KM12, Colon Cancer. The essentials: as §1
A further test concerns OVCAR-3. Conditions: Homo sapiens; OVCAR-3, Ovarian Cancer. In a few lines:
as §1

The subject of another test is UO-31. Conditions: Homo sapiens; UO-31, Renal Cancer. In a few lines: as §1
The test system of another test is NCI-H322M. Particulars: Homo sapiens, Non-small-Cell Lung Cancer. In a few lines: as §1
Another test relates to UACC-62. Particulars: Homo sapiens; UACC-62, Melanoma. In a few lines: as §1
The test system of another test is M14. Conditions: Homo sapiens; M14, Melanoma. In a few lines: as §1

Turning to `O=c1cc(-c2ccccc2)oc2cc(OCCCC[P+](c3ccc(F)cc3)(c3ccc(F)cc3)c3ccc(F)cc3)cc(O)c12` [3d], the GI50 was found to be 1720 nM in the test with DU-145; 2130 nM in the test with NCI-H460; 15.9 µM in the test on NCI/ADR-RES; 1620 nM with MCF7; 1820 nM in the test with NCI-H226; 1320 nM in the test on HOP-92. Moreover, the GI50 with RXF 393 was 1820 nM; in the test with MDA-MB-435 it was 1550 nM; in the test with SF-295, 1520 nM; with SF-268, 1570 nM; in the test on MALME-3M, 2040 nM; in the test on SK-MEL-28, 1690 nM. The GI50 was 1450 nM in the test with T-47D; 1890 nM in the test on IGROV1; 1820 nM in the test on NCI-H522; 1670 nM with HCT-116; 1700 nM with KM12; 1420 nM in the test on OVCAR-3. The 50% growth inhibitory concentration (GI50) stood at 1850 nM in the test with UO-31, 1990 nM with NCI-H322M, 2050 nM in the test with UACC-62 and 1750 nM with M14.

Turning to `Cc1ccc([P+](CCCCOc2cc(O)c3c(=O)cc(-c4ccccc4)oc3c2)(c2ccc(C)cc2)c2ccc(C)cc2)cc1` [3b], the GI50 was found to be 223 nM in the test on DU-145; 357 nM in the test with NCI-H460; 1.18 µM in the test with NCI/ADR-RES; 268 nM in the test on MCF7; 277 nM in the test with NCI-H226; 163 nM in the test with HOP-92. Further, the GI50 in the test on RXF 393 worked out at 333 nM; in the test with MDA-MB-435, 238 nM; with SF-295 it was 215 nM; with SF-268, 285 nM; in the test with MALME-3M, 381 nM; in the test on SK-MEL-28, 514 nM. Besides, the GI50 with T-47D amounted to 105 nM; in the test on IGROV1, 416 nM; with NCI-H522, 274 nM; in the test on HCT-116, 248 nM; with KM12 it was 160 nM; in the test on OVCAR-3 it was 196 nM. Besides, the GI50 with UO-31 turned out to be 177 nM; in the test with NCI-H322M, 532 nM; in the test on UACC-62, 344 nM; with M14 it was 331 nM.
